The values below come from ChEMBL document CHEMBL1154022, “Efficient synthesis of 3,3-diheteroaromatic oxindole analogues and their in vitro evaluation for spermicidal potential” (Bioorg Med Chem Lett, 2009).

One data set relates to Spermatozoa. The data set can be described thus: Spermicidal activity in rat spermatozoa assessed as […]. The following applies: read-out: MEC. The format is functional.
Turning to `COc1ccc2[nH]cc(C3(c4c[nH]c5ccc(OC)cc45)C(=O)Nc4ccccc43)c2c1`, the minimal effective concentration was 340 µg/mL.
With `Cc1c(C2(c3[nH]c4ccccc4c3C)C(=O)Nc3ccccc32)[nH]c2ccccc12`, the minimal effective concentration was found to be 1000 µg/mL.
The same measure, in the same setting: in the case of `O=C1Nc2ccccc2C1(c1c[nH]c2ccc(Br)cc12)c1c[nH]c2ccc(Br)cc12` it was 3180 µg/mL; in that of `O=C1Nc2ccccc2C1(c1c[nH]c2ccccc12)c1c[nH]c2ccccc12`, 2400 µg/mL; in that of `O=C(O)Cc1c(C2(c3[nH]c4ccccc4c3CC(=O)O)C(=O)Nc3ccccc32)[nH]c2ccccc12`, 530 µg/mL.
On the same count and under the same terms, as for `Cc1[nH]c2ccccc2c1C1(c2c(C)[nH]c3ccccc23)C(=O)Nc2ccccc21`, the figure is 2820 µg/mL; as for `O=C(O)c1[nH]c2ccccc2c1C1(c2c(C(=O)O)[nH]c3ccccc23)C(=O)Nc2ccccc21`, 1110 µg/mL.
For the compound `Cn1cc(C2(c3cn(C)c4ccccc34)C(=O)Nc3ccccc32)c2ccccc21`, the minimal effective concentration amounted to 2360 µg/mL.
For the compound `O=C1Nc2ccccc2C1(c1ccc[nH]1)c1ccc[nH]1`, the minimal effective concentration was 3150 µg/mL.
Regarding `CCCCCCCCCc1ccc(OCCOCCOCCOCCOCCOCCOCCOCCOCCO)cc1` [NONOXYNOL 9], the minimal effective concentration was 500 µg/mL.

Test system in the next data set: not listed separately
The data set can be described thus: Toxicity against rabbit erythrocytes assessed as hemolytic index. The settings on record: erythrocyte. It counts as cell-based, Oryctolagus cuniculus.
In the case of `COc1ccc2[nH]cc(C3(c4c[nH]c5ccc(OC)cc45)C(=O)Nc4ccccc43)c2c1`, the Activity was 3.3 mg/mL.
